Test results taken from a melting point compilation (Tetko et al.; mined from patent text by program, amines drawn as free bases though some values may be those of a salt).

SMILES | melting point
CC(C)n1nc(-c2c(-c3ccccc3)nn3ccc(C(=O)N4CCC(c5ccccc5)CC4)cc23)ccc1=O | 184 to 185 °C
CS(=O)(=O)OCCCCC1C(=O)Nc2ccccc21 (stereo not given) | 84 to 85 °C
CCCCCCn1c(C)cc(C)c(C#N)c1=O | 63 to 69 °C
CN1CCN(c2ccccc2C=C2CCCN(c3ccc(Cl)c(Cl)c3)C2=O)CC1 | 138 to 140 °C
CCn1cc(O)c(=O)c2ccccc21 | 180 to 182 °C
CCC(=O)NCCC1CNc2ccc3c(c21)CCO3 (stereo not given) | 96 to 98 °C
COc1cc(OC)c(C(=O)CC(=O)c2cc(OC)c(OC)c(OC)c2)cc1OC | 154 to 156 °C
Cc1ccc(-c2ccc3c(c2)C=C(C(=O)Nc2ccc(C#N)cc2)CCO3)cc1 | 187 to 189 °C
C[C@H](NC(=O)OC(C)(C)C)C(=O)Oc1c[nH]c2ccccc12 | 158 °C
Cc1c(Cc2ccccc2)c(=O)oc2cc(OCC3=NNN(C)N3)cc(OCC3=NNN(C)N3)c12 | 71 to 76 °C
CSc1nccc(-c2cc(C)ccc2N)n1 | 120 to 123 °C
CC(=O)Nc1c([N+](=O)[O-])cnn1-c1c(F)cc(C(F)(F)F)cc1Cl | 129 to 130 °C
CN1C(=O)SC(C)(S(=O)(=O)c2cccc3c(Br)cccc23)C1=O (stereo not given) | 160 to 161 °C
O=c1c2ccccc2ncn1CCN1CCC(c2c[nH]c3ccccc23)CC1 | 90 °C
CCCCCC(=O)C=Cc1ccc(CCCCCCCC(=O)O)o1 | 58 to 59 °C
Cc1ccccc1-c1cn(C)cc(-c2cccc(C(F)(F)F)c2)c1=S | 193 to 195 °C
COc1cc(Cl)ccc1-c1nc2cc3c(cc2[nH]1)C(C)(C)CC(=O)N3 | 300 to 303 °C
COc1ccc(C2(c3ccc(O)c(C)c3)c3ccccc3-c3ccccc32)cc1 | 186 to 188 °C
Cn1c(=O)n(COc2ccc(Cl)cc2)c(=O)c2c1ncn2Cc1ccccc1 | 96 °C
CCCC(=O)OCn1cc(F)c(=O)[nH]c1=O | 96 to 98 °C
CCOC(=O)C1=C(C)N=C(N)C(C)(C(=O)OCC)C1c1ccccc1 (stereo not given) | 139 °C
NS(=O)(=O)c1ccc(N2CCN(CC[C@@H]3OCCc4cc(Br)ccc43)CC2)c(Br)c1 | 206 to 208 °C
CCOC(=O)C1=C(C)NC(=S)N(C(=O)OCC)C1c1cccc2nonc12 (stereo not given) | 144 to 146 °C
CCOC(=O)C1=Cc2cc(S(C)=O)ccc2OC1C(F)(F)F (stereo not given) | 92.2 to 98.4 °C
COCn1c(C(O)(c2ccc(Cl)cc2)c2ccc(Cl)cc2)nc(C)c1C | 151 °C

SMILES | melting point
CCCCC1(CCCC)CCc2c(OCc3ccccc3C(N)=O)cccc2C1O (stereo not given) | 73 to 75 °C
COc1ccc(C=C2c3ccccc3CCc3ccccc32)cc1NS(C)(=O)=O | 192 °C
Cc1cc(Oc2ccc([N+](=O)[O-])c(Cl)c2)n[nH]1 | 91 to 93 °C
O=C(NCCCSc1ccncc1)c1cccnc1 | 90 to 91 °C
COCCNc1nc(-n2ccnc2)nc2ccc(C(C)=O)cc12 | 208 to 210 °C
COC(=O)C1=Cc2cccc(C=O)c2OCC1 | 122 to 124 °C
C[C@@H]1CCN(C(=O)C(C)(C)C)[C@@H](C(=O)O)C1 | 87 to 90 °C
CCOC(=O)COc1c(CO)c(C(F)(F)F)nn1C | 57 to 59 °C
CCn1c2ccccc2c2c(N)c(C(=O)OC)c(C)nc21 | 108 to 110 °C
CCCc1cn(C)c2c(=O)[nH]c(-c3cc(S(=O)(=O)N4CCN(CCCOC(=O)[C@@H](NC(=O)OC(C)(C)C)C(C)C)CC4)ccc3OCC)nc12 | 132 to 134 °C
OC1(c2ccc(Cl)cc2)CCN(CCNC(c2ccccc2)c2ccccc2)CC1 | 114 °C
CC(C)NC(=O)C(Cc1ccccc1)NC(=O)Nc1n[nH]c(=S)s1 (stereo not given) | 206 to 211 °C
CC#CCOc1ccc(S(=O)(=O)NC(C(=O)NO)c2ccc(OCCN3CCCC3)cc2)cc1 (stereo not given) | 70 °C
COC(=O)COc1ccc(C(=O)c2cccs2)c2c1CCCC2 | 85 °C
CSc1nn2c(N3CCNCC3)cc(C(C)(C)C)nc2c1S(=O)(=O)c1ccccc1 | 236 to 237 °C
O=[N+]([O-])c1ccc(-n2cccc2)c(Cl)c1 | 54 to 55 °C
CCOC(=O)c1c(C)cc2nc(C)n(-c3ccccc3C)c(=O)c2c1C | 129 to 130 °C
O=c1[nH]c(=O)n(CCCCCl)c2ccccc12 | 127 to 128 °C
CC1CNc2c([N+](=O)[O-])cnn2C1 (stereo not given) | 190 to 192 °C
CC12CCC3C(CCC4CC(CC(=O)O)CCC43C)C1CCC2CC=O (stereo not given) | 189 to 192 °C
CC1([C@H]2CC[C@@H](O)CC2)CC1 | 56 to 57 °C
O=C1c2ccccc2C(=O)N1Cc1cccc(-c2nc(=O)c3ccccc3s2)n1 | 280 to 281 °C
CCCCC(NC(=O)C(CS)C(C)c1ccccc1)C(=O)O (stereo not given) | 55 °C
CCOC(=O)c1nn(-c2ccc(C)cc2)nc1C | 47 to 48 °C
O=C(Cc1ccccn1)N1CCN(C(=O)Oc2ccc(Oc3ccc(C(F)(F)F)cn3)cc2)CC1 | 143 to 146 °C

SMILES | melting point
Cc1cccc(NS(=O)(=O)c2ccc([N+](=O)[O-])cc2)c1 | 121 to 124 °C
CN1CCN(C(=O)OC2C3=C(SCCS3)C(=O)N2c2ccccn2)CC1 (stereo not given) | 145 °C
CCOC(=O)c1c2ccc(Cl)cc2c(-c2ccccc2)n1CCCC(C)C1OCCO1 (stereo not given) | 100 to 101 °C
COC(=O)c1c(NC(=O)C(C)(C)C)c(Cl)cc(OC)c1OC | 100 to 102 °C
Cc1c(C(=O)N(C)c2ccccc2)nc2n1CCc1ccccc1C2OC1CCN(C)CC1 (stereo not given) | 75 °C
CC(=O)c1ccc(CC(C)OS(=O)(=O)c2ccc(C)cc2)s1 (racemic) | 101 to 103 °C
c1cc2c(c(-c3nc4ncccc4o3)c1)CCCC2 | 87 to 90 °C
COc1cc(Nc2nccc(Nc3cccc(C)c3S(N)(=O)=O)n2)cc(OC)c1OC | 72 to 75 °C
CC(=O)Oc1ccc2c(c1)C(=O)CC1C2CCC2(C)C(OC(C)=O)CCC12 (stereo not given) | 171 to 175 °C
CC(=O)Oc1cnccc1CCCOc1cccnc1Oc1cccc(Br)c1 | 110 to 112 °C
CC(C(=S)c1ccc(NC=O)nc1)S(C)=O (stereo not given) | 125 to 127 °C
CCOC(=O)C1=C(N)NC(C)=CC1c1ccccc1 (stereo not given) | 150 °C
Cc1cccc(-c2nc3c(C)cccc3[nH]2)c1[N+](=O)[O-] | 186 to 188 °C
CCOC(=O)c1cn(C2CC2)c2nc(Cl)c(F)c(C)c2c1=O | 170 to 171 °C
COC(=O)C(C)(C)OCc1cc2cc(Cl)ccc2n1S(=O)(=O)c1ccc2c(c1)CCN2C(C)=O | 128 to 130 °C
COc1cnc(C(O)Cc2c(Cl)cncc2Cl)cc1OC1CCCC1 (stereo not given) | 110 to 112 °C
CCCCCS(=O)(=O)NC(=O)c1ccc2[nH]c(C)c(Cc3ccc(SC(C)(C)C)cc3Cl)c2c1 | 185 to 188 °C
CC(C)NCC(=O)Nc1ccc2c(c1)C(=O)c1cc(NC(=O)CNC(C)C)ccc1C2=O | 158 °C
COc1cc2c(cc1OC)-c1cc(=Nc3c(C)cc(C)cc3C)n(C)c(=O)n1CC2 | 151 to 152 °C
CCOC(=O)c1cnn(-c2ccc(OCC(C)C)c(C#N)c2)c1 | 138 to 139 °C
O=[N+]([O-])c1sc2ccc(Cl)cc2c1Br | 176 to 178 °C
Cc1cc(Cl)cc(Cl)c1N1CCn2c1nc1c(Cl)ccc(C(O)(C3CC3)C3CC3)c12 | 193 to 196 °C
Nc1nc(N)nc(-c2ccc(C#Cc3ccccc3)cc2)n1 | 248 to 249 °C
C#CCN1CCCc2ccc(OC(=O)Nc3c(C)cccc3C(C)C)cc21 | 120 °C
CC#COc1ccc2c(=O)c3ccccc3oc2c1 | 142 to 144 °C

SMILES | melting point
CCCCCCCc1ccc(CCCC(N)(CO)CCO)cc1 (stereo not given) | 68 to 71 °C
CCOP(=O)(/C=C/c1cn(-c2ccccc2)nc1OCc1ccc(OCc2nc(-c3cccc(O)c3)oc2C)c(OC)c1)OCC | 127 to 128 °C
CC(=O)OCC1CC(OC(C)=O)C(n2c(Br)nc3cc(Cl)c(Cl)cc32)C1 (stereo not given) | 122 to 125 °C
CSc1ccc(-c2nn(Cc3ccc(F)cc3F)c(=S)cc2-c2ccc(Cl)cc2)cc1 | 176 to 177 °C
COc1cc(/C=C/C(=O)/C=C/c2ccc(O)c(OC)c2)ccc1O | 82 to 83 °C
CC1=NCN2C1=Cc1cncnc1-c1cccc(C(=O)O)c12 | 285 to 287 °C
O=C(O)C1CC(=O)N(c2cc(C(F)(F)F)cc(C(F)(F)F)c2)C1 (stereo not given) | 108 to 109 °C
Cc1c(NC(=O)CC(C)(C)C)cc2c(c1C)OC(C)(C)C2Nc1ccccc1OC(F)(F)F (stereo not given) | 196 to 197 °C
CCCn1cc2c(C3C(=O)Nc4ccc(C#N)cc43)nc(Cl)nc2n1 (stereo not given) | > 300 °C
CC(C)OC(=O)c1ccc(NC(=O)N2CC(CCCC#N)C(c3ccc(Cl)cc3)=N2)cc1 (stereo not given) | 109 to 113 °C
CS(=O)(=O)OCCn1nccc1NC=O | 101 to 104 °C
CC(c1ccc(O)cc1)(c1ccc(O)cc1)C(F)(F)F | 93 to 94.5 °C
CC1(O[Si](C)(C)C(C)(C)C)CN(c2ccc(N3C[C@H](CO)OC3=O)cc2F)C1 | 144 °C
O=c1[nH]cnc2cc(C(c3ccccc3)n3ccnc3)ccc12 (stereo not given) | 205 °C
CCOc1ccc(C(c2ccc(C(C)(C)C)cc2)C(C)[N+](=O)[O-])cc1 (stereo not given) | 79 to 82 °C
COc1ccc(/C=C/S(=O)(=O)CS(=O)(=O)/C=C/c2ccc(O)c(OC)c2)cc1N | 148 to 150 °C
C=C(c1ccc(NC(=O)OC(C)(C)C)c(C)c1)C(F)(F)C(F)(F)C(F)(F)F | 50 to 53.5 °C
CC(=O)OCC(=O)C1(O)CCC2C3CCC4=CC(=O)C=CC4(C)C3CCC21C (stereo not given) | 214 °C
O=C1N(CC2CCCO2)c2ccccc2C12COc1cc(O)ccc12 (stereo not given) | 72 to 74 °C
CCCN(c1ccncc1)N1C(=O)C2(Cc3ccccc3C2)c2ccccc21 | 159 to 161 °C
COc1cc(N)c(-c2ncn[nH]2)cc1OC | 205 to 210 °C
CCOC(=O)c1ncoc1-c1ccc([N+](=O)[O-])cc1Cl | 140 to 141 °C
Nc1ccc(-c2cc(=O)c(C(=O)O)cn2-c2cccnc2)cc1 | 207 to 208 °C
C=CCCC(C#N)(C#N)Cc1ccc(Cl)cc1 | 63.7 °C
O=C1c2ccccc2C(OCCCl)N1c1ccccc1 (stereo not given) | 71 °C
